What all share (assay type): biochemical, cynomolgus monkey
For assay [1], the target named is cortisol synthase (CYP11B1) (Macaca fascicularis, UniProt A0A2K5ULY1). Briefly: Inhibition of cortisol synthesis (cynomolgus adrenal mitochondria, cortisol by mass spectrometry). A digest of the protocol: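 Cynomolgus adrenal mitochondria (150 units CYP11B1 activity) incubated with 11-deoxycortisol in 100 mM potassium phosphate pH 7.4, 1% DMSO; reaction started with 1 mM NADPH, 90 min at 37° C, stopped with MeCN. Cortisol quantified by mass spectrometry; IC50 from 4-parameter logistic fit versus no-compound (100%) and no-NADPH (0%) controls.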

Assay [2] deals with aldosterone synthase (CYP11B2). Put plainly: Inhibition of aldosterone synthase (cynomolgus adrenal mitochondria, aldosterone by mass spectrometry). As to conditions: selectivity for aldosterone synthase inhibition over cortisol synthase (CYP11B1) inhibition, fold. The essentials: (§1)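 Cynomolgus adrenal mitochondria (50 units CYP11B2 activity) incubated with 2 μM corticosterone in 100 mM potassium phosphate pH 7.4, 1% DMSO; started with 1 mM NADPH, 90 min at 37 °C. Aldosterone quantified by mass spectrometry; no-NADPH blank as 0%, no-compound as 100% activity, across compound concentrations.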

In assay [3] the target is aldosterone synthase (CYP11B2) (Macaca fascicularis, UniProt A0A2K5UPL9). The assay is described as above. The following applies: 2 μM corticosterone substrate, 50 units CYP11B2, 90 min, 37° C.; read-out: Aldosterone Inhibition IC50. A digest of the protocol:
as §1

Setting [4] is: 11-deoxycortisol substrate, 150 units CYP11B1; read-out: Cortisol Inhibition IC50.
Setting [5] is: read-out: Cortisol Inhibition IC50; 11-deoxycortisol substrate, 150 units CYP11B1.

The record followed here is patent publication US10858342B2, “Bicyclic imidazole derivatives useful for the treatment of renal diseases, cardiovascular diseases and fibrotic diseases” (Boehringer Ingelheim International GmbH, priority 2016, dated 2020).

Like-named read-outs stand apart in the source and are kept apart here.

Chain of aldosterone synthase (CYP11B2) (Macaca fascicularis, UniProt A0A2K5UPL9) (A0A2K5UPL9 1-503): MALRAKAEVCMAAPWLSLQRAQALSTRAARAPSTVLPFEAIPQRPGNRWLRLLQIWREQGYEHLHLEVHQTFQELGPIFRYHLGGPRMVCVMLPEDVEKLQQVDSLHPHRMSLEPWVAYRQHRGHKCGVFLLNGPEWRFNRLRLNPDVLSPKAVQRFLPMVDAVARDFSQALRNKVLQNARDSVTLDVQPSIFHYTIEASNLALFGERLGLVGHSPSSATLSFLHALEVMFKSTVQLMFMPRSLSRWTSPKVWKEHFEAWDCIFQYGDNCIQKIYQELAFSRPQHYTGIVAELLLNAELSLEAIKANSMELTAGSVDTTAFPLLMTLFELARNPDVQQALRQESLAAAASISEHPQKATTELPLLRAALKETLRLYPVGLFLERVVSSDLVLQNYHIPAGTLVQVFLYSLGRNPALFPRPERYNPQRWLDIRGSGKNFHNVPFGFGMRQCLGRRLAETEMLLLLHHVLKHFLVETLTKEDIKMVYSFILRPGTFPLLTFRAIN

One may read the IC50 as the concentration at which inhibition is half-maximal. For `CC1(C)CC(=O)c2c(ncn2-c2ccc(C(F)(F)F)cc2)C1` [C-ACI, 6,6-Dimethyl-3-(4-trifluoromethyl-phenyl)-3,5,6,7-tetrahydro-benzoimidazol-4-one], the 50% inhibitory concentration (IC50) was 18000 nM in assay [1] (setting [4]) and 62 nM in assay [3]. The same compound gave a Selectivity in assay [2] of 290.

“3-(4-Cyanophenyl)-6,6-(3-tetrahydrofuran)-3,5,6,7-benzimidiazolo-4-one [C-ABA-B]”: the figures for the half-maximal inhibitory concentration (IC50) in assay [1] (setting [4]) and in assay [3] were 850 nM and 16 nM, respectively. Besides, the Selectivity in assay [2] worked out at 53.

`CC1(C)CC(=O)c2c(ncn2-c2ccccc2)C1` [C-ACA, 6,6-Dimethyl-3-phenyl-3,5,6,7-tetrahydro-benzoimidazol-4-one]: the 50% inhibitory concentration (IC50) came out at 12000 nM in assay [1] (setting [4]) and 250 nM in assay [3]. For the same compound, the Selectivity in assay [2] came out at 46.

As for `C[C@@H]1Cc2cc(-n3cnc4c3C(=O)CCC4)ccc2O1` (stereo in doubt) [C-AAZ-A, 3-(2-Methyl-2,3-dihydro-benzofuran-5-yl)-3,5,6,7-tetrahydro-benzoimidazol-4-one], the IC50 is more than 30000 nM in assay [1] (setting [4]) and 300 nM in assay [3]. The compound also registered a Selectivity in assay [2] of 100.

For `COc1ccc(Cn2cnc3c2C(=O)CC(C)(C)C3)cc1` [C-ADQ, 3-(4-Methoxy-benzyl)-6,6-dimethyl-3,5,6,7-tetrahydro-benzoimidazol-4-one], the 50% inhibitory concentration (IC50) came out at 2100 nM in assay [1] (setting [4]) and 96 nM in assay [3]. Further, the Selectivity in assay [2] is reported as 22.

In the case of `CC1(C)CC(=O)c2c(ncn2Cc2ccc(S(C)(=O)=O)cc2)C1` [C-ADP, 3-(4-Methanesulfonyl-benzyl)-6,6-dimethyl-3,5,6,7-tetrahydro-benzoimidazol-4-one], the IC50 in assay [1] (setting [4]) was found to be 1600 nM; in assay [3] it was 92 nM. The compound further came in with a Selectivity in assay [2] of 17.

On to `CC1(C)CC(=O)c2c(ncn2-c2ccc(C#N)c(Cl)c2)C1` [C-ABE, 2-Chloro-4-(5,5-dimethyl-7-oxo-4,5,6,7-tetrahydro-benzoimidazol-1-yl)-benzonitrile], for which the values for the half-maximal inhibitory concentration (IC50) in assay [1] (setting [5]) and in assay [3] were 110 nM and 1.3 nM, respectively. This compound returned a Selectivity in assay [2] of 79.

`N#Cc1ccc(-n2cnc3c2C(=O)C[C@@H](C(N)=O)C3)cc1Cl` [C-AEB-A, (S)-1-(3-Chloro-4-cyano-phenyl)-7-oxo-4,5,6,7-tetrahydro-1H-benzoimidazole-5-carboxylic acid amide]: the IC50 in assay [1] (setting [5]) is more than 30000 nM; in assay [3], 590 nM. The Selectivity in assay [2] is given as 51.

For the compound `CC1(C)CC(=O)c2c(ncn2C2CCc3ccccc3C2)C1` (stereo not drawn) [C-ADH, 6,6-Dimethyl-3-(1,2,3,4-tetrahydro-naphthalen-2-yl)-3,5,6,7-tetrahydro-benzoimidazol-4-one], the IC50 in assay [1] (setting [4]) was determined as 29000 nM; in assay [3] it was 10 nM. The same compound came in with a Selectivity in assay [2] of 2900.

For `N#Cc1ccc(-n2cnc3c2C(=O)CC2(CCOCC2)C3)cc1` [C-AAS, 4-(7-Oxospiro[4,6-dihydrobenzimidazole-5,4′-tetrahydropyran]-1-yl)benzonitrile], the figures for the IC50 in assay [1] (setting [4]) and in assay [3] were 14000 nM and 240 nM, respectively. Moreover, in assay [2], the Selectivity turned out to be 61.

Take `Cn1c(=O)oc2cc(-n3cnc4c3C(=O)CCC4)ccc21` [C-AAM, 3-Methyl-6-(7-oxo-4,5,6,7-tetrahydro-benzoimidazol-1-yl)-3H-benzooxazol-2-one]: the IC50 was more than 30000 nM in assay [1] (setting [4]) and 120 nM in assay [3]. In assay [2], the Selectivity is given as 240.

As to `CC1(C)CC(=O)c2c(ncn2-c2ccc(Cl)nc2)C1` [C-ABT, 3-(6-Chloro-pyridin-3-yl)-6,6-dimethyl-3,5,6,7-tetrahydro-benzoimidazol-4-one], the values for the IC50 in assay [1] (setting [4]) and in assay [3] were 6900 nM and 230 nM, respectively. The compound further showed a Selectivity in assay [2] of 30.

On to `CC1(C)CC(=O)c2c(ncn2Cc2ccc(-n3cncn3)cc2)C1` [C-ADB, 6,6-Dimethyl-3-(4-[1,2,4]triazol-1-yl-benzyl)-3,5,6,7-tetrahydro-benzoimidazol-4-one], for which the IC50 in assay [1] (setting [4]) came out at 7400 nM; in assay [3], 540 nM. Further, the Selectivity in assay [2] is 14.

In the case of `CC(=O)N1CCCc2cc(-n3cnc4c3C(=O)CCC4)ccc21` [C-AAF, 3-(1-Acetyl-1,2,3,4-tetrahydro-quinolin-6-yl)-3,5,6,7-tetrahydro-benzoimidazol-4-one], the IC50 amounted to 10000 nM in assay [1] (setting [4]) and 37 nM in assay [3]. Also, in assay [2], the Selectivity is on record as 270.

With `CC1(C)CC(=O)c2c(ncn2CC2CC2)C1` [C-ADA, 3-Cyclopropylmethyl-6,6-dimethyl-3,5,6,7-tetrahydro-benzoimidazol-4-one], the IC50 in assay [1] (setting [4]) amounted to 12000 nM; in assay [3], 530 nM. The Selectivity in assay [2] worked out at 23.

Regarding `Cn1ncc2ccc(-n3cnc4c3C(=O)CCC4)cc21` [C-AAH, 3-(1-Methyl-1H-indazol-6-yl)-3,5,67,-tetrahydro-benzoimidazol-4-one], the figures for the IC50 in assay [1] (setting [4]) and in assay [3] were more than 30000 nM and 48 nM, respectively. Moreover, the Selectivity in assay [2] turned out to be 630.

Turning to `CC(C)Oc1ccc(-n2cnc3c2C(=O)CC(C)(C)C3)cc1Cl` [C-ABJ, 3-(3-Chloro-4-isopropoxy-phenyl)-6,6-dimethyl-3,5,6,7-tetrahydro-benzoimidazol-4-one], the IC50 amounted to 95000 nM in assay [1] (setting [4]) and 75 nM in assay [3]. For the same compound, the Selectivity in assay [2] was determined as 1300.

As for `CN1C[C@@H](n2cnc3c2C(=O)CC(C)(C)C3)CCC1=O` [C-ACR, 6,6-Dimethyl-3-((S)-1-methyl-6-oxo-piperidin-3-yl)-3,5,6,7-tetrahydrobenzoimidazol-4-one], the IC50 is more than 30000 nM in assay [1] (setting [4]) and 785 nM in assay [3]. Besides, in assay [2], the Selectivity worked out at 38.

In the case of `Cn1ncc2c1CC(n1cnc3c1C(=O)CCC3)CC2` (stereo not drawn) [C-AEF, 3-(1-Methyl-4,5,6,7-tetrahydro-1H-indazol-6-yl)-3,5,6,7-tetrahydro-benzoimidazol-4-one], the IC50 in assay [1] (setting [4]) is more than 30000 nM; in assay [3], 190 nM. Besides, the Selectivity in assay [2] amounted to 160.

As to `N#Cc1ccc(-n2cnc3c2C(=O)CC2(CC2)C3)cc1` [C-AAX, 3-(4-Cyanophenyl)-6,6-spirocyclpropyl-3,5,6,7-tetrahydro-benzimidazol-4-one], the figures for the half-inhibitory concentration (IC50) in assay [1] (setting [4]) and in assay [3] were 1900 nM and 8.5 nM, respectively. The Selectivity in assay [2] turned out to be 230.

In the case of `Cn1ncc2cc(-n3cnc4c3C(=O)CCC4)ccc21` [C-AAG, 3-(1-Methyl-1H-indazol-5-yl)-3,5,67,-tetrahydro-benzoimidazol-4-one], the IC50 in assay [1] (setting [4]) is more than 30000 nM; in assay [3], 100 nM. In assay [2], the Selectivity turned out to be 300.

With `CN1C(=O)COc2cc(-n3cnc4c3C(=O)CCC4)ccc21` [C-AAN, 4-Methyl-7-(7-oxo-4,5,6,7-tetrahydro-benzoimidazol-1-yl)-4H-benzo[1,4]oxazin-3-one], the half-maximal inhibitory concentration (IC50) is more than 30000 nM in assay [1] (setting [4]) and 84 nM in assay [3]. The same compound returned a Selectivity in assay [2] of 360.

In the case of `CN1C(=O)CCc2cc(-n3cnc4c3C(=O)CC3(CCOCC3)C4)ccc21` [C-AAP, 3-(1-Methyl-2-oxo-3,4-dihydroquinolin-6-yl)spiro[5,7-dihydrobenzoimidazole-6,4′-tetrahydropyran]-4-one], the values for the IC50 in assay [1] (setting [4]) and in assay [3] were more than 30000 nM and 460 nM, respectively. The compound also had a Selectivity in assay [2] of 65.

`CC1(C)CC(=O)c2c(ncn2-c2ccc(C#N)cc2)C1` [C-ABX, 4-(5,5-Dimethyl-7-oxo-4,5,6,7-tetrahydro-benzoimidazol-1-yl)-benzonitrile]: the results for the IC50 in assay [1] (setting [4]) and in assay [3] were 1300 nM and 17 nM, respectively. Besides, in assay [2], the Selectivity is 80.

On to `O=C1CCCc2ncn(-c3ccc4c(c3)CCCN4)c21` [C-ABB, 3-(1,2,3,4-Tetrahydro-quinolin-6-yl)-3,5,6,7-tetrahydro-benzoimidazol-4-one], for which the IC50 in assay [1] (setting [4]) is more than 30000 nM; in assay [3] it was 250 nM. In addition, the Selectivity in assay [2] was determined as 120.

For the compound `C[C@H]1Cc2cc(-n3cnc4c3C(=O)CCC4)ccc2O1` (stereo in doubt) [C-AAZ-B, 3-(2-Methyl-2,3-dihydro-benzofuran-5-yl)-3,5,6,7-tetrahydro-benzoimidazol-4-one], the concentration for half-maximal inhibition (IC50) in assay [1] (setting [4]) was more than 30000 nM; in assay [3], 70 nM. Also, the Selectivity in assay [2] turned out to be 430.

In the case of `O=C1CC2(CCC2)Cc2ncn(-c3ccc(F)c(F)c3)c21` [C-ACE], the IC50 in assay [1] (setting [4]) turned out to be 630 nM; in assay [3] it was 20 nM. The compound further came in with a Selectivity in assay [2] of 32.

For the compound `CC1(C)CC(=O)c2c(ncn2C2CC3(COC3)C2)C1` [C-ACT, 6,6-Dimethyl-3-(2-oxa-spiro[3.3]hept-6-yl)-3,5,6,7-tetrahydro-benzoimidazol-4-one], the IC50 in assay [1] (setting [4]) was more than 30000 nM; in assay [3], 780 nM. In assay [2], the Selectivity is listed as 38.

Consider `CC1(C)CC(=O)c2c(ncn2C2CCc3ccccc32)C1` (stereo not drawn) [C-ACQ, 3-Indan-1-yl-6,6-dimethyl-3,5,6,7-tetrahydro-benzoimidazol-4-one], for which the IC50 in assay [1] (setting [4]) is more than 30000 nM; in assay [3], 220 nM. The Selectivity in assay [2] is given as 130.

For `Cc1cc(-n2cnc3c2C(=O)CC(C)(C)C3)ccc1C#N` [C-ABV, 4-(5,5-Dimethyl-7-oxo-4,5,6,7-tetrahydro-benzoimidazol-1-yl)-2-methyl-benzonitrile], the IC50 in assay [1] (setting [4]) stood at 130 nM; in assay [3], 6.6 nM. In assay [2], the Selectivity came out at 20.
